According to patent publication US8399515B2, “Five and fifteen carbon fatty acids for treating metabolic disorders and as nutritional supplements” (Baylor Research Institute, priority 2003, dated 2013):
Values joined by “and” are separate entries in the source; they are usually repeats but may differ in a detail not shown here. Equal values may be shown once.

Columns and labels:
[1] = system: fibroblasts from MCAD heterozygote (carrier); assay: Fate of odd-carbon fatty acids in MCAD carrier fibroblasts; format: cell-based, human; parameters: unit not given here
Experimental: (§1) Fibroblasts obtained from patients with inherited defects of mitochondrial fat oxidation were cultured in the presence of omega deuterated odd-carbon numbered fatty acids, as described in Roe, C. R., Sweetman, L., Roe, D. S., David, F., Brunengraber, H., “Effective Dietary Treatment of Cardiomyopathy & Rhabdomyolysis in Long-Chain Fat Oxidation Disorders using an Anaplerotic Odd-Chain Triglyceride,” J. Clin. Invest. 110 (2): 259-269 (2002).
Fibroblasts from four patients with MCAD deficiency and one heterozygote (carrier) indicate that odd-carbon fatty acids containing more than seven carbons can not be effectively used in that disease. […] That any C3 was produced is presumably due to overlapping

[2] = system: control / normal fibroblasts; assay: Fate of odd-carbon fatty acids in control (normal) fibroblasts; format: cell-based, human; parameters: *C3 acylcarnitine / *C5 acylcarnitine / *C7 acylcarnitine / *C9 acylcarnitine / *C11 acylcarnitine / *C13 acylcarnitine / *C15 acylcarnitine: unit not given here; settings: for Propionylcarnitine from odd carbon precursor: NORMAL fibroblasts
Experimental: Fibroblasts obtained from patients with inherited defects of mitochondrial fat oxidation were cultured in the presence of omega deuterated odd-carbon numbered fatty acids, as described in Roe, C. R., Sweetman, L., Roe, D. S., David, F., Brunengraber, H., “Effective Dietary Treatment of Cardiomyopathy & Rhabdomyolysis in Long-Chain Fat Oxidation Disorders using an Anaplerotic Odd-Chain Triglyceride,” J. Clin. Invest. 110 (2): 259-269 (2002). […]

[3] = system: MCAD-deficient fibroblasts; assay: Fate of odd-carbon fatty acids in MCAD-deficient fibroblasts; format: cell-based, human; parameters: *C3 acylcarnitine / *C5 acylcarnitine / *C7 acylcarnitine / *C9 acylcarnitine / *C11 acylcarnitine / *C13 acylcarnitine / *C15 acylcarnitine: unit not given here; settings: for *C3 acylcarnitine / *C5 acylcarnitine / *C7 acylcarnitine / *C9 acylcarnitine: MCAD fibroblasts, N 4
Experimental: as §1
Fibroblasts from four patients with MCAD deficiency and one heterozygote (carrier) indicate that odd-carbon fatty acids containing more than seven carbons can not be effectively used in that disease. […]

[4] = system: fibroblasts from patients with Short-chain acyl-CoA dehydrogenase (SCAD) deficiency; assay: Propionylcarnitine from oxidation of odd-carbon fatty acids in SCAD fibroblasts; format: cell-based, human; settings: SCAD fibroblasts, one line per patient, 72 hours incubation
Experimental: as §1
(§2) The data in Table 1 represents testing of cultured fibroblasts derived from ten patients afflicted with Very-long-chain acyl-CoA dehydrogenase (VLCAD) deficiency (six patients with the severe cardiac form and four with the non-cardiac milder phenotype), two patients with Mitochondrial Trifunctional Protein (MTP) deficiency, five patients having L-3-hydroxy-acyl-CoA dehydrogenase (LCHAD) deficiency and three patients with Short-chain acyl-CoA dehydrogenase (SCAD) deficiency.

[5] = system: fibroblasts from patients with Very-long-chain acyl-CoA dehydrogenase (VLCAD) deficiency, severe cardiac form; assay: Propionylcarnitine from oxidation of odd-carbon fatty acids in VLCAD (cardiac) fibroblasts; format: cell-based, human; settings: VLCAD cardiac fibroblasts, one line per patient, 72 hours incubation
Experimental: as §1, §2

[6] = system: fibroblasts from patients with Mitochondrial Trifunctional Protein (MTP) deficiency; assay: Propionylcarnitine from oxidation of odd-carbon fatty acids in MTP fibroblasts; format: cell-based, human; settings: MTP fibroblasts, one line per patient, 72 hours incubation
Experimental: as §1, §2

[7] = system: fibroblasts from patients with VLCAD deficiency, non-cardiac milder phenotype; assay: Propionylcarnitine from oxidation of odd-carbon fatty acids in VLCAD (non-cardiac) fibroblasts; format: cell-based, human; settings: VLCAD non-cardiac fibroblasts, one line per patient, 72 hours incubation
Experimental: as §1, §2

[8] = system: fibroblasts from patients with L-3-hydroxy-acyl-CoA dehydrogenase (LCHAD) deficiency; assay: Propionylcarnitine from oxidation of odd-carbon fatty acids in LCHAD fibroblasts; format: cell-based, human; settings: LCHAD fibroblasts, one line per patient, 72 hours incubation
Experimental: as §1, §2

SCAD patient = assay: Meal test with triheptanoin or tripentanoin in a SCAD patient; format: in vivo, human
From the text: (§3) A VLCAD patient and an SCAD patient, both of whom had gastrostomy sites for enteral administration, each were provided with separate meals containing equimolar amounts of triheptanoin (C7) and tripentanoin (C5) at different times on the same day. Each patient was given the amount in 1 of 4 daily meals equivalent to a diet of 3 gms/Kg/day or about 30% of total Kcal as the triglyceride. Serial blood samples were obtained hourly and individual urines were collected at baseline and during the meal.
(§4) The patient with VLCAD (FIG. 3) was monitored over a 3 hour interval and the SCAD patient was monitored for 4 hours after beginning the meal. […] One way the VLCAD patient was monitored was for myristenoylcamitine (cis-5-C14:1), which reflects oxidation of oleate and is therefore an indication of ongoing lipolysis during the meal tests (it is not derived from either C7 or C5). […] These changes are not observed with even-carbon triglycerides.
The second patient with SCAD deficiency (FIG. 4) had been receiving the triheptanoin diet for more than 2 years. This disorder is due to an inherited deficiency of butyryl-CoA dehydrogenase (SCAD) and is known to oxidize even carbon fatty acids of 4-6 carbon chain length.
In FIG. 4, C7-C3 represents the blood levels of C3 derived from C7; and C5-C3 represents the blood levels of C3 derived from C5, C7-C5 represents blood levels of pentanoylcarnitine (C5) derived from C7 meals and C5-C5 represents blood levels of pentanoylcarnitine (C5) derived from C5 meals. […] C7-C4 and C5-C4 represent the levels of the disease-specific acylcarnitine (butyrylcarnitine [C4]) observed in SCAD deficiency. […] This increased quantity of C3 corresponds to those observed for SCAD deficiency in the fibroblast studies above shown in Table 1.

VLCAD patient = assay: Meal test with triheptanoin or tripentanoin in a VLCAD patient; format: in vivo, human; parameters: Myristenoylcarnitine Level: unit not given here; settings: for Myristenoylcarnitine Level / Propionylcarnitine Level: blood
From the text: as §3, §4

CCCCCCCCC(=O)O [C9, nonanoate, reference compound]
*C3 acylcarnitine [1]: 6.0 | *C5 acylcarnitine [1]: 0.4 | *C7 acylcarnitine [1]: 0.4 | *C9 acylcarnitine [1]: 3.2 | *C3 acylcarnitine ([2]; CONTROL MEAN, N = 4): 3.9 | *C5 acylcarnitine ([2]; CONTROL MEAN, N = 4): 0.4 | *C7 acylcarnitine ([2]; CONTROL MEAN, N = 4): 0.3 | *C9 acylcarnitine ([2]; CONTROL MEAN, N = 4): 2.0 | Propionylcarnitine from odd carbon precursor [2]: 3.9 nmol/mg Protein/72 hours | *C3 acylcarnitine ([3]; Maximum): 5.5 | *C5 acylcarnitine ([3]; Maximum): 0.7 | *C7 acylcarnitine ([3]; Maximum): 4.2 | *C9 acylcarnitine ([3]; Maximum): 10.3 | *C3 acylcarnitine ([3]; Mean): 3.0 | *C5 acylcarnitine ([3]; Mean): 0.5 | *C7 acylcarnitine ([3]; Mean): 2.8 | *C9 acylcarnitine ([3]; Mean): 7.3 | *C3 acylcarnitine ([3]; Minimum): 1.6 | *C5 acylcarnitine ([3]; Minimum): 0.3 | *C7 acylcarnitine ([3]; Minimum): 1.6 | *C9 acylcarnitine ([3]; Minimum): 4.0 | Propionylcarnitine from odd carbon precursor ([3]; MCAD-1 fibroblast cell line): 1.8 nmol/mg Protein/72 hours | Propionylcarnitine from odd carbon precursor ([3]; MCAD-2 fibroblast cell line): 2.9 nmol/mg Protein/72 hours

CCCCCCC(=O)O [C7, heptanoate, reference compound]
*C3 acylcarnitine [1]: 16.3 | *C5 acylcarnitine [1]: 0.9 | *C7 acylcarnitine [1]: 0.5 | Propionylcarnitine from oxidation of fatty acid [4]: 57.7 nmol/mg Protein/72 hours and 32.4 nmol/mg Protein/72 hours and 39.2 nmol/mg Protein/72 hours | Propionylcarnitine from oxidation of fatty acid [5]: 28.7 nmol/mg Protein/72 hours and 13.0 nmol/mg Protein/72 hours and 44.5 nmol/mg Protein/72 hours and 17.8 nmol/mg Protein/72 hours and 20.4 nmol/mg Protein/72 hours and 25.0 nmol/mg Protein/72 hours | *C3 acylcarnitine ([2]; CONTROL MEAN, N = 4): 24.3 | *C5 acylcarnitine ([2]; CONTROL MEAN, N = 4): 1.3 | *C7 acylcarnitine ([2]; CONTROL MEAN, N = 4): 0.4 | Propionylcarnitine from odd carbon precursor [2]: 24.3 nmol/mg Protein/72 hours | Propionylcarnitine from oxidation of fatty acid [6]: 24.1 nmol/mg Protein/72 hours and 48.1 nmol/mg Protein/72 hours | Propionylcarnitine from oxidation of fatty acid [7]: 22.6 nmol/mg Protein/72 hours and 20.3 nmol/mg Protein/72 hours and 24.3 nmol/mg Protein/72 hours and 14.4 nmol/mg Protein/72 hours | *C3 acylcarnitine ([3]; Maximum): 15.4 | *C5 acylcarnitine ([3]; Maximum): 1.8 | *C7 acylcarnitine ([3]; Maximum): 12.0 | *C3 acylcarnitine ([3]; Mean): 8.3 | *C5 acylcarnitine ([3]; Mean): 1.1 | *C7 acylcarnitine ([3]; Mean): 8.3 | *C3 acylcarnitine ([3]; Minimum): 5.7 | *C5 acylcarnitine ([3]; Minimum): 0.7 | *C7 acylcarnitine ([3]; Minimum): 2.4 | Propionylcarnitine from odd carbon precursor ([3]; MCAD-1 fibroblast cell line): 10.6 nmol/mg Protein/72 hours | Propionylcarnitine from odd carbon precursor ([3]; MCAD-2 fibroblast cell line): 17.4 nmol/mg Protein/72 hours | Propionylcarnitine from oxidation of fatty acid [8]: 53.2 nmol/mg Protein/72 hours and 23.5 nmol/mg Protein/72 hours and 24.0 nmol/mg Protein/72 hours and 10.6 nmol/mg Protein/72 hours and 22.7 nmol/mg Protein/72 hours | Clinical or biochemical toxicity (SCAD patient; meal test, 4 hours): no clinical or biochemical toxicity | Relative Blood Levels of Fatty Acid Chain Lengths: C3 (SCAD patient; time 0 hours): 3.00 | Relative Blood Levels of Fatty Acid Chain Lengths: C4 (butyrylcarnitine) (SCAD patient; time 0 hours): 0.34 | Relative Blood Levels of Fatty Acid Chain Lengths: C3 (SCAD patient; time 1 hours): 2.08 | Relative Blood Levels of Fatty Acid Chain Lengths: C4 (butyrylcarnitine) (SCAD patient; time 1 hours): 0.16 | Relative Blood Levels of Fatty Acid Chain Lengths: C3 (SCAD patient; time 2 hours): 2.42 | Relative Blood Levels of Fatty Acid Chain Lengths: C4 (butyrylcarnitine) (SCAD patient; time 2 hours): 0.23 | Relative Blood Levels of Fatty Acid Chain Lengths: C3 (SCAD patient; time 3 hours): 3.29 | Relative Blood Levels of Fatty Acid Chain Lengths: C4 (butyrylcarnitine) (SCAD patient; time 3 hours): 0.26 | Relative Blood Levels of Fatty Acid Chain Lengths: C3 (SCAD patient; time 4 hours): 2.61 | Relative Blood Levels of Fatty Acid Chain Lengths: C4 (butyrylcarnitine) (SCAD patient; time 4 hours): 0.30 | Myristenoylcarnitine Level (VLCAD patient; time 0 hours, cis-5-C14:1, marker of lipolysis): 2.61 | Propionylcarnitine Level (VLCAD patient; time 0 hours, enteral meal via gastrostomy): 1.39 | Myristenoylcarnitine Level (VLCAD patient; time 1 hours): 2.83 | Propionylcarnitine Level (VLCAD patient; time 1 hours): 2.89 | Myristenoylcarnitine Level (VLCAD patient; time 2 hours): 1.38 | Propionylcarnitine Level (VLCAD patient; time 2 hours): 3.78 | Myristenoylcarnitine Level (VLCAD patient; time 3 hours): 2.64 | Propionylcarnitine Level (VLCAD patient; time 3 hours): 4.57 | Clinical or biochemical toxicity (VLCAD patient; meal test, 3 hour interval): no clinical or biochemical toxicity
